Experimental data published in US9157908B2, “Chitosan-alginate scaffold cell culture system and related methods” (University of Washington through its Center for …, priority 2011, dated 2015).
Where two headings read alike, the source gives them in different places.

Columns and labels:
[1] = cited from earlier work
HepG2 cells = experiment: Cellular response to doxorubicin, cell viability by Alamar Blue assay; type: cell-based, human; settings: for LD50 for doxorubicin: 72 hours post treatment; for viability at 1 µM: Homo sapiens, read-out: viability relative to untreated cells
Description: (§1) Proliferation of cells cultured on 2D wells, Matrigel matrix, and CA scaffolds was determined using the Alamar Blue assay following the manufacturer's protocol. Briefly, cells cultured on 2D wells and 3D scaffolds were washed with D-PBS before adding 1 mL of Alamar Blue solution (10% Alamar Blue in fully supplemented phenol red free DMEM or MEM) to each well.
(§2) For human hepatocellular carcinoma cells, after 2 hrs the Alamar Blue solution was transferred to a 96-well plate to obtain fluorescent values on a SpectraMax M2 microplate reader (Molecular Devices, Sunnyvale, Calif.) at 550 nm excitation, 590 nm emission. Standard curves were generated by seeding cells counted using a hemocytometer onto cell culture materials in triplicate, and performing Alamar Blue assay to generate a plot of linear regression of fluorescent values vs. cell number for each material. The cell number in an experimental sample was calculated based on the standard curve. No background fluorescence was generated by CA scaffolds. Cells were again washed with D-PBS to remove Alamar Blue solution and fresh fully-supplemented media were added to each well.
(§3) For human hepatocellular carcinoma cell-containing scaffolds, after 10 days of culture, media from cell cultures were replaced with 1 mL fully supplemented cell culture media containing various concentrations of doxorubicin. Cells were induced with doxorubicin containing media for 24 h, after which media was replaced with standard fully supplemented cell culture media. Cell viability was assessed using the Alamar Blue assay following the manufacturer's protocol as described above. LD50 was estimated via a polynomial approximation.

PLC/PRF/5 (PLC) cells = experiment: as above; type: cell-based, human; settings: 72 hours post treatment
Description: as §1, §2, §3

In the case of `COc1cccc2c1C(=O)c1c(O)c3c(c(O)c1C2=O)C[C@@](O)(C(=O)CO)C[C@@H]3O[C@H]1C[C@H](N)[C@H](O)[C@H](C)O1` [doxorubicin], the clearance from plasma ([1]; 48 hours post treatment) is listed as “nearly complete clearance”, the peak plasma concentration ([1]; standard dosing schemes, minutes after treatment) is listed as “approximately 15 μM” and the LD50 for doxorubicin (HepG2 cells; HepG2 cells cultured in 2D substrate) is listed as 0.45 ± 0.18 µM. It also gave an LD50 for doxorubicin (HepG2 cells; HepG2 cells in CA) of 13 ± 1.7 µM, an LD50 for doxorubicin (HepG2 cells; HepG2 cells in Matrigel) of 7 ± 2.2 µM and a viability at 1 µM (HepG2 cells; HepG2, 48 h) of 86.7 ± 2.4%. It also gave a viability at 1 µM (HepG2 cells; HepG2, 72 h) of 88.6 ± 2.75%, an LD50 of doxorubicin (PLC/PRF/5 (PLC) cells; PLC cells CA cultured) of 4 ± 1.4 µM and an LD50 of doxorubicin (PLC/PRF/5 (PLC) cells; PLC cells Matrigel cultured) of 3 ± 1.1 µM. The LD50 of doxorubicin (PLC/PRF/5 (PLC) cells; PLC cells cultured on 2D surfaces) was 0.2 ± 0.13 µM.
